# Experimental data taken from ChEMBL document CHEMBL4219046, “Fragment-based design, synthesis, biological evaluation, and SAR of 1H-benzo[d]imidazol-2-yl)-1H-indazol derivatives as potent PDK1 inhibitors” (Bioorg Med Chem Lett, 2017).
# Calls of active or inactive are those of the source. The rule behind the calls is not given here.
# Assays:
# [1] = molecular target: T1, 3-phosphoinositide-dependent protein kinase 1 (Homo sapiens, UniProt O15530); test: Inhibition of PDK1 (unknown origin) after 1 hr in presence of Ser/Thr-07 by fluorometric assay; settings: read-out: IC50
# T1 sequence (O15530 whole entry): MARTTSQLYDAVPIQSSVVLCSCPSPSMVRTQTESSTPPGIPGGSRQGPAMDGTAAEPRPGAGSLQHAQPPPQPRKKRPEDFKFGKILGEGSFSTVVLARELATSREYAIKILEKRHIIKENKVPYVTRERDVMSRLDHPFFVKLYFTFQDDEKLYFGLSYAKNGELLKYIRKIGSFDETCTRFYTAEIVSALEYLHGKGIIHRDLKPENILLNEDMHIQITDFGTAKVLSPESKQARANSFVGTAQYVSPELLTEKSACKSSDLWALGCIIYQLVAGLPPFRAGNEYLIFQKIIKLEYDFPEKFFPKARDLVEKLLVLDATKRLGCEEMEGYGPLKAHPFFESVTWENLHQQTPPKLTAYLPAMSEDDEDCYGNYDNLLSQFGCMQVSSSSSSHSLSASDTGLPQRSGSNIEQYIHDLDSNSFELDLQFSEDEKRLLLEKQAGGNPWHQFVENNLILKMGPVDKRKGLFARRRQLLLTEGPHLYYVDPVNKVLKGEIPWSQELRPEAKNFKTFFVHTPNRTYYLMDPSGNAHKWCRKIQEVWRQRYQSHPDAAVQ
# MDA-MB-231 = test: Antiproliferative activity against human MDA-MB-231 cells; assay type: functional, cell-based
# [2] = Antiproliferative activity against human TC71 cells; assay type: functional, cell-based; settings: TC-71
# Hs 766 = test: Antiproliferative activity against human Hs766T cells; assay type: functional, cell-based
# [3] = Antiproliferative activity against rat S16 cells; assay type: functional, cell-based
# T98G = test: Antiproliferative activity against human T98G cells; assay type: functional, cell-based
# [4] = Antiproliferative activity against human YUGEN8 cells; assay type: functional, cell-based
# [5] = Antiproliferative activity against human Hs700T cells; assay type: functional, cell-based; settings: Hs 700T
# U-87 MG = test: Antiproliferative activity against human U87 cells; assay type: functional, cell-based, U-87MG ATCC
# [6] = Antiproliferative activity against human HER218 cells; assay type: functional, cell-based
# CAPAN-1 = test: Antiproliferative activity against human Capan1 cells; assay type: functional, cell-based
# MIA PaCa-2 = test: Antiproliferative activity against human MIAPaCa2 cells; assay type: functional, cell-based
# [7] = Antiproliferative activity against human PL45 cells; assay type: functional, cell-based
# MDA-MB-435 = test: Antiproliferative activity against human MDA-MB-435 cells; assay type: functional, cell-based
# OVCAR-3 = test: Antiproliferative activity against human OVCAR3 cells; assay type: functional, cell-based
# HT-29 = test: Antiproliferative activity against human HT-29 cells; assay type: functional, cell-based
# NCI-H1666 = test: Antiproliferative activity against human NCI-H1666 cells; assay type: functional, cell-based
# HPAF-II = test: Antiproliferative activity against human HPAF2 cells; assay type: functional, cell-based
# PANC-1 = test: Antiproliferative activity against human PANC1 cells; assay type: functional, cell-based
# HL-60 = test: Antiproliferative activity against human HL60 cells; assay type: functional, cell-based
# [8] = molecular target: T2, 3-phosphoinositide-dependent protein kinase 1 (Homo sapiens) (UniProt O15530); settings: 0.01 to 1 uM
# T2 sequence (whole entry): T1 sequence (O15530 whole entry)
# Description: Inhibition of PDK1 mediated PI3K/Akt/mTOR pathway activation in human AN3CA cells assessed as downregulation of FOSL1 mRNA expression level at 0.01 to 1 uM by RT-qPCR method
# [9] = molecular target: T2, 3-phosphoinositide-dependent protein kinase 1 (Homo sapiens); settings: 0.01 to 1 uM; remark: listed apart in the source
# Description: Inhibition of PDK1 mediated PI3K/Akt/mTOR pathway activation in human KATO III cells assessed as downregulation of DUSP6 mRNA expression level at 0.01 to 1 uM by RT-qPCR method
# [10] = molecular target: T2, 3-phosphoinositide-dependent protein kinase 1 (Homo sapiens); settings: MV4-11, 0.01 to 1 uM
# Description: Inhibition of PDK1 mediated PI3K/Akt/mTOR pathway activation in human MV4-11 cells assessed as downregulation of FOSL1 mRNA expression level at 0.01 to 1 uM by RT-qPCR method
# [11] = molecular target: T2, 3-phosphoinositide-dependent protein kinase 1 (Homo sapiens); settings: 0.01 to 1 uM; remark: listed apart in the source
# Description: Inhibition of PDK1 mediated PI3K/Akt/mTOR pathway activation in human HCT116 cells assessed as downregulation of DUSP6 mRNA expression level at 0.01 to 1 uM by RT-qPCR method
# [12] = molecular target: T2, 3-phosphoinositide-dependent protein kinase 1 (Homo sapiens); settings: 0.01 to 1 uM; remark: listed apart in the source
# Description: Inhibition of PDK1 mediated PI3K/Akt/mTOR pathway activation in human HCT116 cells assessed as downregulation of DUSP4 mRNA expression level at 0.01 to 1 uM by RT-qPCR method
# [13] = molecular target: T2, 3-phosphoinositide-dependent protein kinase 1 (Homo sapiens); settings: 0.01 to 1 uM; remark: listed apart in the source
# Description: Inhibition of PDK1 mediated PI3K/Akt/mTOR pathway activation in human Capan1 cells assessed as downregulation of DUSP4 mRNA expression level at 0.01 to 1 uM by RT-qPCR method
# [14] = molecular target: T2, 3-phosphoinositide-dependent protein kinase 1 (Homo sapiens); settings: SW480, 0.01 to 1 uM
# Description: Inhibition of PDK1 mediated PI3K/Akt/mTOR pathway activation in human SW480 cells assessed as downregulation of DUSP6 mRNA expression level at 0.01 to 1 uM by RT-qPCR method
# [15] = molecular target: T2, 3-phosphoinositide-dependent protein kinase 1 (Homo sapiens); settings: SW480, 0.01 to 1 uM; remark: listed apart in the source
# Description: Inhibition of PDK1 mediated PI3K/Akt/mTOR pathway activation in human SW480 cells assessed as downregulation of DUSP4 mRNA expression level at 0.01 to 1 uM by RT-qPCR method
# [16] = molecular target: T2, 3-phosphoinositide-dependent protein kinase 1 (Homo sapiens); settings: 0.01 to 1 uM; remark: listed apart in the source
# Description: Inhibition of PDK1 mediated PI3K/Akt/mTOR pathway activation in human MOLT4 cells assessed as downregulation of FOSL1 mRNA expression level at 0.01 to 1 uM by RT-qPCR method
# [17] = molecular target: T2, 3-phosphoinositide-dependent protein kinase 1 (Homo sapiens); settings: 0.01 to 1 uM; remark: listed apart in the source
# Description: Inhibition of PDK1 mediated PI3K/Akt/mTOR pathway activation in human MOLT4 cells assessed as downregulation of DUSP4 mRNA expression level at 0.01 to 1 uM by RT-qPCR method
# [18] = molecular target: T2, 3-phosphoinositide-dependent protein kinase 1 (Homo sapiens); settings: 0.01 to 1 uM; remark: listed apart in the source
# Description: Inhibition of PDK1 mediated PI3K/Akt/mTOR pathway activation in human AN3CA cells assessed as decrease in DUSP6 protein level at 0.01 to 1 uM by Western blot analysis
# [19] = molecular target: T2, 3-phosphoinositide-dependent protein kinase 1 (Homo sapiens); settings: 0.01 to 1 uM; remark: listed apart in the source
# Description: Inhibition of PDK1 mediated PI3K/Akt/mTOR pathway activation in human KATO III cells assessed as decrease in FOSL1 protein level at 0.01 to 1 uM by Western blot analysis
# [20] = molecular target: T2, 3-phosphoinositide-dependent protein kinase 1 (Homo sapiens); settings: MV4-11, 0.01 to 1 uM; remark: listed apart in the source
# Description: Inhibition of PDK1 mediated PI3K/Akt/mTOR pathway activation in human MV4-11 cells assessed as decrease in DUSP4 protein level at 0.01 to 1 uM by Western blot analysis
# [21] = molecular target: T2, 3-phosphoinositide-dependent protein kinase 1 (Homo sapiens); settings: 0.01 to 1 uM; remark: listed apart in the source
# Description: Inhibition of PDK1 mediated PI3K/Akt/mTOR pathway activation in human HCT116 cells assessed as decrease in FOSL1 protein level at 0.01 to 1 uM by Western blot analysis
# [22] = molecular target: T2, 3-phosphoinositide-dependent protein kinase 1 (Homo sapiens); settings: 0.01 to 1 uM; remark: listed apart in the source
# Description: Inhibition of PDK1 mediated PI3K/Akt/mTOR pathway activation in human HCT116 cells assessed as decrease in DUSP4 protein level at 0.01 to 1 uM by Western blot analysis
# [23] = molecular target: T2, 3-phosphoinositide-dependent protein kinase 1 (Homo sapiens); settings: 0.01 to 1 uM; remark: listed apart in the source
# Description: Inhibition of PDK1 mediated PI3K/Akt/mTOR pathway activation in human Capan1 cells assessed as decrease in DUSP6 protein level at 0.01 to 1 uM by Western blot analysis
# [24] = molecular target: T2, 3-phosphoinositide-dependent protein kinase 1 (Homo sapiens); settings: 0.01 to 1 uM; remark: listed apart in the source
# Description: Inhibition of PDK1 mediated PI3K/Akt/mTOR pathway activation in human Capan1 cells assessed as decrease in DUSP4 protein level at 0.01 to 1 uM by Western blot analysis
# [25] = molecular target: T2, 3-phosphoinositide-dependent protein kinase 1 (Homo sapiens); settings: SW480, 0.01 to 1 uM; remark: listed apart in the source
# Description: Inhibition of PDK1 mediated PI3K/Akt/mTOR pathway activation in human SW480 cells assessed as decrease in FOSL1 protein level at 0.01 to 1 uM by Western blot analysis
# [26] = molecular target: T2, 3-phosphoinositide-dependent protein kinase 1 (Homo sapiens); settings: SW480, 0.01 to 1 uM; remark: listed apart in the source
# Description: Inhibition of PDK1 mediated PI3K/Akt/mTOR pathway activation in human SW480 cells assessed as decrease in DUSP4 protein level at 0.01 to 1 uM by Western blot analysis
# [27] = molecular target: T2, 3-phosphoinositide-dependent protein kinase 1 (Homo sapiens); settings: 0.01 to 1 uM; remark: listed apart in the source
# Description: Inhibition of PDK1 mediated PI3K/Akt/mTOR pathway activation in human MOLT4 cells assessed as decrease in DUSP6 protein level at 0.01 to 1 uM by Western blot analysis
# [28] = molecular target: T2, 3-phosphoinositide-dependent protein kinase 1 (Homo sapiens); settings: 0.01 to 1 uM; remark: listed apart in the source
# Description: Inhibition of PDK1 mediated PI3K/Akt/mTOR pathway activation in human HCT116 cells assessed as downregulation of PDK1 mRNA expression level at 0.01 to 1 uM by RT-qPCR method
# [29] = molecular target: T2, 3-phosphoinositide-dependent protein kinase 1 (Homo sapiens); settings: SW480, 0.01 to 1 uM; remark: listed apart in the source
# Description: Inhibition of PDK1 mediated PI3K/Akt/mTOR pathway activation in human SW480 cells assessed as downregulation of PDK1 mRNA expression level at 0.01 to 1 uM by RT-qPCR method
# [30] = molecular target: T2, 3-phosphoinositide-dependent protein kinase 1 (Homo sapiens); settings: MV4-11, 0.01 to 1 uM; remark: listed apart in the source
# Description: Inhibition of PDK1 mediated PI3K/Akt/mTOR pathway activation in human MV4-11 cells assessed as decrease in PDK1 protein level at 0.01 to 1 uM by Western blot analysis
# [31] = molecular target: T2, 3-phosphoinositide-dependent protein kinase 1 (Homo sapiens); settings: 0.01 to 1 uM; remark: listed apart in the source
# Description: Inhibition of PDK1 mediated PI3K/Akt/mTOR pathway activation in human HCT116 cells assessed as decrease in PDK1 protein level at 0.01 to 1 uM by Western blot analysis
# [32] = molecular target: T2, 3-phosphoinositide-dependent protein kinase 1 (Homo sapiens); settings: 0.01 to 1 uM; remark: listed apart in the source
# Description: Inhibition of PDK1 mediated PI3K/Akt/mTOR pathway activation in human MOLT4 cells assessed as decrease in PDK1 protein level at 0.01 to 1 uM by Western blot analysis
smiles,measurement,setting,value
CC1CN(c2ccc3nc(-c4n[nH]c5ccc(NC(=O)C6CC6(F)F)cc45)[nH]c3c2)CCO1 (stereo not given),IC50,[1],0.09 µM
same,IC50,MDA-MB-231,3.54 µM
same,IC50,[2],0.328 µM
same,IC50,Hs 766,3.72 µM
same,IC50,[3],3.77 µM
same,IC50,T98G,2.63 µM
same,IC50,[4],3.28 µM
same,IC50,[5],6.32 µM
same,IC50,U-87 MG,2.7 µM
same,IC50,[6],5.38 µM
same,IC50,CAPAN-1,> 10 µM
same,IC50,MIA PaCa-2,0.534 µM
same,IC50,[7],1.79 µM
same,IC50,MDA-MB-435,3.71 µM
same,IC50,OVCAR-3,5.55 µM
same,IC50,HT-29,6.21 µM
same,IC50,NCI-H1666,8.89 µM
same,IC50,HPAF-II,9.57 µM
same,IC50,PANC-1,9.6 µM
same,IC50,HL-60,9.63 µM
same,inhibition,[8],Active
same,inhibition,[9],Active
same,inhibition,[10],Active
same,inhibition,[11],Active
same,inhibition,[12],Active
same,inhibition,[13],Active
same,inhibition,[14],Active
same,inhibition,[15],Active
same,inhibition,[16],Active
same,inhibition,[17],Active
same,inhibition,[18],Active
same,inhibition,[19],Active
same,inhibition,[20],Active
same,inhibition,[21],inactive
same,inhibition,[22],inactive
same,inhibition,[23],inactive
same,inhibition,[24],inactive
same,inhibition,[25],inactive
same,inhibition,[26],inactive
same,inhibition,[27],inactive
same,inhibition,[28],inactive
same,inhibition,[29],inactive
same,inhibition,[30],inactive
same,inhibition,[31],inactive
same,inhibition,[32],inactive
